Experimental data reported in article PMC9440615 (Biochemical pharmacology, 2020).
Where a name gives a salt, the structure may show the parent alone. Read-outs that look alike come from different tables or passages of the source.

Legend:
[1] = target: T1, hPXR (Homo sapiens, UniProt O75469)
T1 sequence (O75469 1-434): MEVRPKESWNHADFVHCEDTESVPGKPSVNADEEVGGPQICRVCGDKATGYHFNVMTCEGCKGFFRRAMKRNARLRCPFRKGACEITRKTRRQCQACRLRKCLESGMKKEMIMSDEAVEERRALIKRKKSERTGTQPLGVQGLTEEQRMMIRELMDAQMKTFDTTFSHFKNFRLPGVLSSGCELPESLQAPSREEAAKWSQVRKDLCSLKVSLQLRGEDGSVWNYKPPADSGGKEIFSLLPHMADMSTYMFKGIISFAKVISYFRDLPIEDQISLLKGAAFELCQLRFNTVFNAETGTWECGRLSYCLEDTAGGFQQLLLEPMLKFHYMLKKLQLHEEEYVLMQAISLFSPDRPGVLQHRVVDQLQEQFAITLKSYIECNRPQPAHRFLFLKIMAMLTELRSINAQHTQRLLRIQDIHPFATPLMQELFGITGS

[2] = target: T1, hPXR; experiment: cell-based
[3] = system: CYP3A4 mRNA expression; experiment: CYP3A4 mRNA induction in HepaRG cells; settings: 24 h treatment, Fig. 2A; for CYP3A4 mRNA induction (result in words): compared with vehicle or RIF 10 μM
[4] = system: CYP3A4 mRNA expression; experiment: CYP3A4 mRNA induction in HepaRG-PXR-KO cells versus HepaRG cells; assay type: cell-based, human; settings: HepaRG-PXR-KO vs HepaRG, 24 h, Fig. 5A
[5] = system: CYP2B6 mRNA expression; experiment: CYP2B6 mRNA induction in HepaRG-PXR-KO cells versus HepaRG cells; assay type: cell-based, human; settings: HepaRG-PXR-KO vs HepaRG, 24 h, Fig. 5B
[6] = system: CYP3A4 mRNA expression
[7] = qHTS primary screen, hPXR-Luc HepG2, 24 h, relative to positive control RIF
[8] = PXR Primary EC50, qHTS primary screen, hPXR-Luc HepG2, 24 h

SMILES | PXR Primary Efficacy [1, 7] [%] | EC50 [2] [µM] | EC50 [2, 8] [µM] | PXR Follow-up Efficacy [1] | PXR Primary Efficacy [1] | further results
O[C@@H](COc1cccc2ncccc12)CN1CCN([C@@H]2c3ccccc3[C@@H]3[C@H](c4ccccc42)C3(F)F)CC1 [Zosuquidar trihydrochloride] | 188 ± 41.7 | 1.6 ± 0.3 | 3.2 ± 1.7 | – | – | –
CCOC(=O)C1=C(C)NC(C)=C(C(=O)OCC)C1c1ccccc1/C=C/C(=O)OC(C)(C)C [Lacidipine] | – | – | – | 10.4 ± 4.4 [115 ± 15.0] % | 5.6 ± 5.5 [155 ± 70.5] % | CYP3A4 mRNA induction (result in words) [3]: greater extent than the positive control
Cc1cccc(N(C)C(=S)Oc2ccc3c(c2)CCC3)c1 [Tolindate] | 201 ± 37.5 | 8.7 ± 1.5 | 8.3 ± 2.3 | – | – | –
Cc1oc2c(NC(=O)c3c(Cl)cccc3Cl)cccc2c1C(C)(C)O [FR167356] | 178 ± 9.77 | – | – | – | – | EC50 [1]: 7.1 ± 1.2 µM; EC50 ([1]; read-out: PXR Primary EC50, qHTS primary screen, hPXR-Luc HepG2, 24 h): 3 ± 2.2 µM
Nc1nc(Cl)nc2c1ncn2[C@@H]1O[C@H](CO)[C@@H](O)[C@@H]1F [Clofarabine] | – | – | – | 3.3 ± 0.4 [214 ± 13.9] % | 0.7 ± 0.2 [112 ± 34.6] % | –
Clc1ccc(-c2nc3sccn3c2C=NOCc2ccc(Cl)c(Cl)c2)cc1 [CITCO, 6-(4-Chlorophenyl)imidazo[2,1–b][1, 3]thiazole-5-carbaldehyde O-(3,4-dichlorobenzyl)oxime] | – | – | – | – | – | Change of CYP3A4 mRNA induction in PXR-KO cells [4]: lack a significant decrease; Change of CYP2B6 mRNA expression in PXR-KO cells [5]: significantly decreased
N=C(Nc1ccccc1)Nc1ccccc1 [1,3-Diphenylguanidine] | – | – | – | 2.7 ± 0.3 [393 ± 128] % | 8.0 ± 13.7 [461 ± 143] % | EC50 ([2]; PXR Primary EC50): 8 µM; EC50 ([2]; […]): 2.7 µM
O=C(CCCN1CCC2(CC1)C(=O)NCN2c1ccccc1)c1ccc(F)cc1 [Spiperone] | – | – | – | 6.2 ± 3.3 [345 ± 225] % | 3.7 ± 0.4 [341 ± 31.7] % | CYP3A4 mRNA induction (fold increase) [3]: > 5 fold; CYP3A4 mRNA induction (result in words) [3]: not statistically significant
COc1cccc(N(C)C(=S)Oc2ccc3c(c2)CCCC3)n1 [Liranaftate] | – | – | – | 4.5 ± 0.7 [144 ± 16.0] % | 5.5 ± 2.6 [148 ± 42.6] % | CYP3A4 mRNA induction (result in words) [6]: greater extent than the positive control
CCCN(CCC)c1c([N+](=O)[O-])cc(C(F)(F)F)c(N)c1[N+](=O)[O-] [Prodiamine] | – | – | – | 8.5 ± 0.9 [108 ± 6.61] % | 4.7 ± 0.8 [168 ± 31.0] % | EC50 ([2]; PXR Primary EC50): 4.7 µM; EC50 ([2]; […]): 8.5 µM
CC(C)C[C@H](NC(=O)[C@H](CCc1ccccc1)NC(=O)CN1CCOCC1)C(=O)N[C@@H](Cc1ccccc1)C(=O)N[C@@H](CC(C)C)C(=O)[C@@]1(C)CO1 [Carfilzomib] | 110 ± 10.3 | 0.1 ± 0.02 | 0.04 ± 0.024 | – | – | –
Cc1nc(Nc2ncc(C(=O)Nc3c(C)cccc3Cl)s2)cc(N2CCN(CCO)CC2)n1 [Dasatinib] | – | – | – | 0.6 ± 0.07 [127 ± 12.0] % | 0.3 ± 0.5 [84.6 ± 22.2] % | –
COC(=O)c1c(C(F)F)nc(C(F)(F)F)c(C2=NCCS2)c1CC(C)C [Thiazopyr] | – | – | – | 4.6 ± 0.3 [102 ± 8.66] % | 1.2 ± 1.0 [108 ± 37.9] % | CYP3A4 mRNA induction (result in words) [6]: greater extent than the positive control; EC50 ([2]; PXR Primary EC50): 1.2 µM; EC50 ([2]; […]): 4.6 µM
CC(C)C[C@H](NC(=O)[C@H](Cc1ccccc1)NC(=O)c1cnccn1)B(O)O [Bortezomib] | – | – | – | 0.02 ± 0.004 [83.8 ± 12.8] % | 0.008 ± 0.0005 [97.7 ± 17.9] % | –
CC[C@H]1CN2CCc3cc(OC)c(OC)cc3[C@@H]2C[C@@H]1C[C@H]1NCCc2cc(OC)c(OC)cc21 [Emetine] | – | – | – | 0.1 ± 0.01 [119 ± 8.89] % | 0.05 ± 0.04 [211 ± 74.0] % | –
COC(=O)C1=C(C)NC(C)=C(C(=O)OC2CCCN(Cc3ccccc3)C2)C1c1cccc([N+](=O)[O-])c1 (racemic) [rac Benidipine hydrochloride] | – | – | – | 4.6 ± 2.3 [105 ± 14.7] % | 5.6 ± 5.4 [141 ± 33.3] % | –
CCOc1cc(N)c(Cl)cc1C(=O)NCC1CN(Cc2ccc(F)cc2)CCO1 (stereo not drawn) [Mosapride citrate] | 222 ± 59.5 | 10.8 ± 1.2 | 8.8 ± 3.3 | – | – | –
O=C(CCCCCCC(=O)Nc1ccccc1)NO [Vorinostat (SAHA), Vorinostat] | – | – | – | – | 7.8 ± 3.8 [182 ± 46.9] % | –
CCN1C(=O)c2ccccc2C1Nc1ccc(OCCN2CCCCC2)cc1 (stereo not drawn) [Etomidoline] | 175 ± 74.6 | 3.2 ± 0.4 | 2.6 ± 1.3 | – | – | CYP3A4 mRNA induction (result in words) [3]: greater extent than the positive control
CCCCOCN(C(=O)CCl)c1c(CC)cccc1CC [Butachlor] | – | 6.49 ± 2.9 | 4 ± 4 | 107 ± 26.0% | 119 ± 49.2% | CYP3A4 mRNA induction (fold increase) ([6]; human): > 5 fold
